Results as given in PubChem BioAssay (NCI).
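Growth conditions: 96-well plates. Treatment: test compound, 48 hours, 5 concentrations. Analysis: linear interpolation between bracketing concentrations; unreached endpoints set to highest concentration. Here, GI50 denotes the concentration required for 50% inhibition of growth. TGI marks complete inhibition of growth.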

Assays:
Assay in all cases: NCI tumour cell line growth inhibition, 48 h
K-562 leukemia = test system: K-562 leukemia
COLO 205 colon = test system: COLO 205 colon
SW-620 colon = test system: SW-620 colon
SNB-75 CNS = test system: SNB-75 CNS
IGROV1 ovarian = test system: IGROV1 ovarian
NCI-H522 lung = test system: NCI-H522 lung
SNB-19 CNS = test system: SNB-19 CNS
OVCAR-5 ovarian = test system: OVCAR-5 ovarian
EKVX NSCLC = test system: EKVX NSCLC
CAKI-1 renal = test system: CAKI-1 renal

Row | Compound | GI50 (K-562 leukemia) [µM] | TGI (K-562 leukemia) [µM] | GI50 (COLO 205 colon) [µM] | TGI (COLO 205 colon) [µM] | GI50 (SW-620 colon) [µM] | TGI (SW-620 colon) [µM] | GI50 (SNB-75 CNS) [µM] | TGI (SNB-75 CNS) [µM] | GI50 (IGROV1 ovarian) [µM] | TGI (IGROV1 ovarian) [µM] | GI50 (NCI-H522 lung) [µM] | TGI (NCI-H522 lung) [µM] | GI50 (SNB-19 CNS) [µM] | TGI (SNB-19 CNS) [µM] | GI50 (OVCAR-5 ovarian) [µM] | TGI (OVCAR-5 ovarian) [µM] | GI50 (EKVX NSCLC) [µM] | TGI (EKVX NSCLC) [µM] | TGI (CAKI-1 renal) [µM] | GI50 (CAKI-1 renal) [µM]
1 | C=C1C(=O)O[C@H]2[C@H]1CC/C(COC(=O)CCCCCCCCC(=O)OC/C1=C/CC[C@@]3(C)O[C@H]3[C@H]3OC(=O)C(=C)[C@@H]3CC1)=C\CC[C@@]1(C)O[C@@H]21 | 2.6 | 9.7 | 1.89 | 4.15 | 1.87 | 3.87 | 4.8 | 19.6 | 1.97 | 4.24 | 2.12 | 4.04 | 2.45 | 6.51 | 2.26 | 5.56 | 1.95 | 4.29 | – | –
2 | C[C@@H](CO)OCOCc1ccccc1 | – | > 100 | – | > 100 | – | > 100 | – | > 100 | – | > 100 | – | > 100 | – | > 100 | – | – | – | – | > 100 | –
3 | CN1CCC[C@@H]1CCO[C@](C)(c1ccccc1)c1ccc(Cl)cc1 | – | – | 1.75 | 3.56 | 5.5 | 18.8 | 2.29 | 12.7 | 4.16 | 18.1 | 4.63 | 17.1 | 8.42 | 22.2 | 5.34 | 18.6 | 10.9 | 25.2 | 21.5 | 7.12
4 | O=C(Nc1ccccc1)Nc1cccc(-n2cc(-c3ccncc3)c(-c3ccc(O)c(Cl)c3)n2)c1 | 3.59 | 13.4 | 4.95 | 21 | 3.67 | 38.4 | 1.68 | 10.7 | 6.06 | 41.4 | 2.26 | 6.73 | 6.27 | > 100 | 5.39 | 31.5 | – | – | 14.3 | 2.92
5 | COC(=O)C1=CN=C(C(=O)OC)NN1 | – | > 100 | – | > 100 | – | > 100 | – | > 100 | – | > 100 | – | > 100 | – | > 100 | – | – | – | – | > 100 | –
6 | CCc1ccccc1NC(=O)CCc1n[nH]c(=S)o1 | – | > 100 | – | > 100 | – | 44.1 | – | > 100 | – | > 100 | – | – | – | > 100 | – | > 100 | – | > 100 | > 100 | –
7 | NC(=O)N/N=C(\C(=O)C(=O)Nc1ccc(Cl)c(C(F)(F)F)c1)c1nc2ccc(C(=O)c3ccccc3)cc2[nH]c1=O | – | > 100 | – | > 100 | – | > 100 | – | – | – | > 100 | – | > 100 | – | > 100 | – | > 100 | – | > 100 | > 100 | –
8 | COc1ccc(-c2nn(-c3cccc(NC(=O)Nc4ccc(Cl)c(C(F)(F)F)c4)c3)cc2-c2ccncc2)cc1Cl | – | – | 2.01 | 4.2 | 3.66 | 63.9 | 1.91 | 9.56 | 3.65 | 29.5 | 1.85 | 6.77 | 3.77 | > 100 | 4.36 | 30.8 | – | – | > 100 | 2.18
9 | O=C1C(=O)N(C(=O)c2ccc(Cl)c(Cl)c2)c2ccc(Cl)cc21 | – | > 100 | – | > 100 | – | > 100 | – | > 100 | – | > 100 | – | – | – | > 100 | – | > 100 | – | > 100 | – | –
